Data published in patent US10626095B2, “Cyanotriazole compounds” (OTSUKA PHARMACEUTICAL CO., LTD., priority 2013, dated 2020).

Assays:
[1] = system: Zucker Diabetic Fatty (ZDF) rat; test: Meal load test in type 2 diabetic model rats (postprandial blood glucose); type: in vivo; parameters: unit not given here; conditions: ZDF rats fasted overnight, oral 10 mg/kg in 5% Arabia gum, blood glucose one hour after meal loading (50 kcal/kg)
Experimental: Effects on Type 2 Diabetes: Meal Load Test
To evaluate whether a cyanotriazol compound improves diabetes or not, especially related to postprandial blood glucose, meal load test was performed using one of type 2 diabetic model rats, the Zucker Diabetic Fatty (ZDF) rat (Charles river, Japan). About 24 animals fasted overnight (17 h) were taken blood samples from the tail veins, and measured blood glucose levels (Pre BG) and body weights (BW). Proper animals were selected and divided into […] (n=6) based on the Pre BG and BW using SAS Statistical Analysis System (SAS institute Japan Ltd. Release 9.1). The compounds to be tested (10 or 30 mg/kg body weight in 5% Arabia gum) or Arabia gum solution only (vehicle group) were orally administrated via gavage two hours prior to or just before meal loading (50 kcal/kg body weight). The meal suspension was prepared by mixing purified AIN-93G (Norsan Corp, Yokohama, Japan) and distilled water (2:3, w/v). One-hour after meal loading, blood glucose (BG1h) of each animal was measured. Effectiveness of each compound was shown by ? BG1h (BG1h difference between compound group and vehicle group). Although a set of 24 animals was used several times (from 13 weeks to 21 weeks of age), at least a one-week interval was placed from one to another test.

[2] = system: NaCT-CHO (CHO cells stably expressing human NaCT); test: Assay of the citric acid cycle activation ([1,5-14C]-citric acid, diffusion of [14C]-CO2); type: cell-based; conditions: 1 hour incubation at 37° C. with [1,5-14C]-citric acid
Summary of the method: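 NaCT-CHO cells (pME-CHO empty-vector cells for non-specific counts) were incubated 1 h at 37 °C in Na+-containing HEPES-Tris pH 7.4 with compound plus an equal volume of 0.4 mM [1,5-14C]-citric acid solution. Residual cell radioactivity was counted, [14C]-CO2 diffusion was taken as (Total−R)/(Total−NS)×100%, and EC50 was derived by regression.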

Row | SMILES | BG1h (BG1h difference between compound group and vehicle group) [1] | EC50 [2]
1 | N#Cc1[nH]nnc1-c1ccc(-c2nccc(C(F)(F)F)n2)cc1 [Example 70, 5-[4-(4-trifluoromethyl-pyrimidin-2-yl)-phenyl]-3H-[1,2,3]triazole-4-carbonitrile] | −137.2 | 0.51 µM
2 | N#Cc1[nH]nnc1-c1csc(-c2ccc(Cl)cc2)n1 [Example 75, 5-[2-(4-chloro-phenyl)-thiazol-4-yl]-3H-[1,2,3]triazole-4-carbonitrile] | −83.2 | 0.88 µM
3 | N#Cc1[nH]nnc1-c1csc(-c2ccc(Cl)c(Cl)c2)n1 [Example 77, 5-[2-(3,4-dichloro-phenyl)-thiazol-4-yl]-3H-[1,2,3]triazole-4-carbonitrile] | −61.3 | 0.91 µM
4 | N#Cc1[nH]nnc1-c1csc(-c2cccc(C(F)(F)F)c2)n1 [Example 78, 5-[2-(3-trifluoromethyl-phenyl)-thiazol-4-yl]-3H-[1,2,3]triazole-4-carbonitrile] | −93.7 | 0.51 µM
5 | N#Cc1[nH]nnc1-c1csc(-c2cccc(OC(F)(F)F)c2)n1 [Example 79, 5-[2-(3-trifluoromethoxy-phenyl)-thiazol-4-yl]-3H-[1,2,3]triazole-4-carbonitrile] | −51.0 | 0.62 µM
6 | Cc1sc(-c2ccc(F)c(Cl)c2)nc1-c1nn[nH]c1C#N [Example 90, 5-[2-(3-chloro-4-fluoro-phenyl)-5-methyl-thiazol-4-yl]-3H-[1,2,3]triazole-4-carbonitrile] | −119.0 | 0.56 µM
7 | Cc1sc(-c2ccc(C(F)(F)F)cc2)nc1-c1nn[nH]c1C#N [Example 92, 5-[5-methyl-2-(4-trifluoromethyl-phenyl)-thiazol-4-yl]-3H-[1,2,3]triazole-4-carbonitrile] | −69.2 | 0.82 µM
8 | CCc1sc(-c2ccc(Cl)cc2)nc1-c1nn[nH]c1C#N [Example 98, 5-[2-(4-chloro-phenyl)-5-ethyl-thiazol-4-yl]-3H-[1,2,3]triazole-4-carbonitrile] | −87.9 | 0.59 µM
9 | CCc1sc(-c2ccc(C(F)(F)F)cn2)nc1-c1nn[nH]c1C#N [Example 100] | −100.5 | 0.54 µM
10 | N#Cc1[nH]nnc1-c1nc(-c2cccc(C(F)(F)F)c2)sc1Cl [Example 108, 5-[5-chloro-2-(3-trifluoromethyl-phenyl-phenyl)-thiazol-4-yl]-3H-[1,2,3]triazole-4-carbonitrile] | −101.9 | 0.42 µM
11 | N#Cc1[nH]nnc1-c1nc(-c2cccc(C(F)(F)F)c2)oc1C1CC1 [Example 120, 5-[5-cyclopropyl-2-(3-trifluoromethyl-phenyl)-oxazol-4-yl]-3H-[1,2,3]triazole-4-carbonitrile] | −114.3 | 0.89 µM
12 | CC(C)c1oc(-c2ccc(Cl)cc2)nc1-c1nn[nH]c1C#N [Example 122, 5-[2-(4-chloro-phenyl)-5-isopropyl-oxazol-4-yl]-3H-[1,2,3]triazole-4-carbonitrile] | −75.5 | 0.51 µM
13 | N#Cc1[nH]nnc1-c1ccc(/C=C/c2cccc(C(F)(F)F)c2)o1 [Example 137, 5-{5-[(E)-2-(3-trifluoromethyl-phenyl)-vinyl]-furan-2-yl}-3H-[1,2,3]triazole-4-carbonitrile] | −162.6 | 0.57 µM
14 | N#Cc1[nH]nnc1-c1ccc2ccn(CCCC(F)(F)F)c2c1 [Example 146] | −94.9 | 0.41 µM
15 | N#Cc1[nH]nnc1-c1cc2ccc(-c3ccc(F)cc3)cc2o1 [Example 147, 5-[6-(4-fluoro-phenyl)-benzofuran-2-yl]-3H-[1,2,3]triazole-4-carbonitrile] | −80.5 | 1.66 µM
16 | N#Cc1[nH]nnc1-c1cccc(-c2cc(F)cc(C(F)(F)F)c2)c1 [Example 220, 5-(5′-fluoro-3′-trifluoromethyl-biphenyl-3-yl)-3H-[1,2,3]triazole-4-carbonitrile] | −85.6 | 0.35 µM
17 | N#Cc1[nH]nnc1-c1cc(Cl)cc(-c2cc(C(F)(F)F)cc(C(F)(F)F)c2)c1 [Example 275, 5-(5-chloro-3′,5′-bis-trifluoromethyl-biphenyl-3-yl)-3H-[1,2,3]triazole-4-carbonitrile] | −83.3 | 1.04 µM
18 | N#Cc1[nH]nnc1-c1cc(Cl)cc(-c2ccc(OC(F)(F)F)c(F)c2)c1 [Example 276, 5-(5-chloro-3′-fluoro-4′-trifluoromethoxy-biphenyl-3-yl)-3H-[1,2,3]triazole-4-carbonitrile] | −71.4 | 0.85 µM
19 | N#Cc1[nH]nnc1-c1cc(OC(F)(F)F)cc(-c2ccc(OC(F)(F)F)c(F)c2)c1 [Example 298, 5-(3′-fluoro-5,4′-bis-trifluoromethoxy-biphenyl-3-yl)-3H-[1,2,3]triazole-4-carbonitrile] | −62.8 | 0.74 µM
20 | N#Cc1[nH]nnc1-c1cccc(OCc2ccc(C(F)(F)F)c(C(F)(F)F)c2)c1 [Example 423, 5-[3-(3,4-bis-trifluoromethyl-benzyloxy)-phenyl]-3H-[1,2,3]triazole-4-carbonitrile] | −87.6 | 0.92 µM
21 | N#Cc1[nH]nnc1-c1cc(OCc2cc(C(F)(F)F)ccc2C(F)(F)F)cc(OC(F)(F)F)c1 [Example 504, 5-[3-(2,5-bis-trifluoromethyl-benzyloxy)-5-trifluoromethoxy-phenyl]-3H-[1,2,3]triazole-4-carbonitrile] | −69.1 | 1.47 µM
22 | N#Cc1[nH]nnc1-c1cc(Cl)cc(/C=C/c2cc(C(F)(F)F)cc(C(F)(F)F)c2)c1 [Example 610, 5-{3-[(E)-2-(3,5-bis-trifluoromethyl-phenyl)-vinyl]-5-chloro-phenyl}-3H-[1,2,3]triazole-4-carbonitrile] | −86.8 | 1.74 µM
23 | N#Cc1[nH]nnc1-c1cccc(/C=C/c2cccc(C(F)(F)F)c2)c1 [Example 613, 5-{3-[(E)-2-(3-trifluoromethyl-phenyl)-vinyl]-phenyl}-3H-[1,2,3]triazole-4-carbonitrile] | −138.8 | 0.43 µM
24 | N#Cc1[nH]nnc1-c1cccc(/C=C/c2ccc(C(F)(F)F)cc2)c1 [Example 617, 5-{3-[(E)-2-(4-trifluoromethyl-phenyl)-vinyl]-phenyl}-3H-[1,2,3]triazole-4-carbonitrile] | −113.3 | 0.48 µM
25 | N#Cc1[nH]nnc1-c1cc(/C=C/c2cccc(C(F)(F)F)c2)cc(C(F)(F)F)c1 [Example 620, 5-{3-trifluoromethyl-5-[(E)-2-(3-trifluoromethyl-phenyl)-vinyl]-phenyl}-3H-[1,2,3]triazole-4-carbonitrile] | −159.7 | 1.45 µM
26 | N#Cc1[nH]nnc1-c1cc(Cl)cc(/C=C/c2ccc(F)cc2)c1 [Example 623, 5-{3-chloro-5-[(E)-2-(4-fluoro-phenyl)-vinyl]-phenyl}-3H-[1,2,3]triazole-4-carbonitrile] | −111.2 | 0.69 µM
27 | Cc1cc(/C=C/c2ccc(F)cc2)cc(-c2nn[nH]c2C#N)c1 [Example 627, 5-{3-[(E)-2-(4-fluoro-phenyl)-vinyl]-5-methyl-phenyl}-3H-[1,2,3]triazole-4-carbonitrile] | −85.2 | 0.74 µM
28 | N#Cc1[nH]nnc1-c1cc(/C=C/c2ccc(F)cc2)cc(OC(F)(F)F)c1 [Example 639, 5-{3-[(E)-2-(4-fluoro-phenyl)-vinyl]-5-trifluoromethoxy-phenyl}-3H-[1,2,3]triazole-4-carbonitrile] | −58.5 | 1.21 µM
29 | N#Cc1[nH]nnc1-c1cccc(/C=C/c2ccc(F)cc2)c1 [Example 640, 5-{3-[(E)-2-(4-fluoro-phenyl)-vinyl]-phenyl}-3H-[1,2,3]triazole-4-carbonitrile] | −62.0 | 0.67 µM
30 | CCOc1cc(/C=C/c2cccc(C(F)(F)F)c2)cc(-c2nn[nH]c2C#N)c1 [Example 644, 5-{3-ethoxy-5-[(E)-2-(3-trifluoromethyl-phenyl)-vinyl]-phenyl}-3H-[1,2,3]triazole-4-carbonitrile] | −131.0 | 2.35 µM
